According to patent publication US20210386791A1, “METHODS OF CELLULAR REPROGRAMMING” (TissueTech, Inc., priority 2018, published 2021):

Assays:
[1] = system: human corneal myofibroblasts; assay: Reversal of TGFβ1-induced human corneal myofibroblasts on immobilized HC-HA/PTX3; assay type: cell-based; conditions: day 4 and day 7
Method: HCF were cultured in DMEM+10% FBS until 70% confluence. The cells were serum-starved for 1 day and treated with 10 ng/ml TGFβ1 for 3 days to induce myofibroblasts.
To reverse fibroblasts or myofibroblasts into keratocytes, fibroblasts or myofibroblasts were cultured on immobilized HC-HA/PTX3 in DMEM+10% FBS for 3 days using the samples from the cells on plastic and HA as the controls. Some of the cell cultures were extended to up to 7 days of culture to monitor the expression of α-SMA formation. […]
The samples of human corneal fibroblasts, myofibroblasts and corneal keratocytes were air-dried and fixed in 4% formaldehyde, pH 7.0, for 15 min at room temperature, rehydrated in PBS, incubated with 0.2% Triton X-100 for 15 min, and rinsed 3 times with PBS for 5 min each. […] The samples were then counterstained with Hoechst 33342 and analyzed in Zeiss LSM 700 confocal microscope (Thornhood, N.Y.). […]
Cell lysates were prepared in RIPA buffer and resolved on 4-15% (w/v) gradient acrylamide gels under denaturing and reducing conditions for Western blotting. […] Immunoreactive proteins were detected with Western Lighting Chemiluminescence (PerkinElmer, Waltham, Mass.).

[2] = system: human corneal fibroblasts (HCF); assay: P3 HCF on plastic with or without immobilized HA or HC-HA/PTX3, with or without TGFβ1: mRNA, ELISA, Western blot, immunostaining; assay type: cell-based
Method: A total of 89 human corneas from individuals aged 18-76 years and maintained at 4° C. in Optisol (Chiron Vision, Irvine, Calif.) for less than 7 days after death were obtained from the Florida Lions Eye Bank (Miami, Fla.) and handled according to the declaration of Helsinki. HCF were isolated and cultured. Epithelial and endothelial cells were removed from corneas, the stroma was cut into cubes of approximately 1 mm^3, incubated in 2 mg/ml collagenase for 16 h at 37° C., and then placed in a culture medium consisting of Dulbecco's modified Eagle's medium (DMEM) supplemented with 10% fetal bovine serum containing […]. The culture medium was changed twice a week. The morphology of the cells was monitored by Nikon Eclipse TS 100 microscope (Melville, N.Y.). Cells cultured to passage 3 (P3) were used for all experiments.
Human corneal fibroblasts (P3) were seeded on plastics with or without immobilized HC-HA/PTX3 complex for 72 h in DMEM+10% FBS, then serum starved for 24 h and treated with or without TGFβ1 for 24 h before being harvested for mRNA quantitation or immunostaining. For determination of protein of TGFβ receptor or p75NTR, the cells were treated with or without TGF-β1 for 48 h before collection of protein samples because the protein expression lags behind mRNA expression. For TGF-β1 ELISA, the cells were treated with or without TGF-β1 for 24 h, and then cultured in the fresh medium for another 24 h. The supernatants were collected for TGFβ1 ELISA. For TGFβ2 and TGFβ3 ELISA, the cells were treated with or without TGFβ1 for 48 h. Certain HCF were seeded on glass in DMEM+10% FBS for 24 h, then in DMEM+ITS (insulin-transferrin-selenium) for 24 h, treated with/without PBS or hyaluronic acid (HA) or HC-HA/PTX3±TGFβ1 (10 ng/ml)±Marimastat (10 μM) or ±DAPT (10 μM) or ±both for 0, 5, 15, 30 and 45 minutes before being harvested for immunostaining of CD44-ICD, JNK1, Cyclin D1 and p75NTR and for 5 minutes before being harvested for Western blotting of cytoplasmic and nuclear CD44-ICD, active MT1-MMP, and active γ-secretase after compartmental separation of the cellular components.
Total RNAs were extracted using RNeasy Mini Kit and were reverse transcribed using High Capacity Reverse Transcription Kit (Applied Biosystems). cDNA obtained was amplified by real-time RT-PCR using specific primer-probe mixtures and DNA polymerase in 7000 Real-time PCR System (Thermo-Fisher Scientific, Carlsbad, Calif.). Real-time RT-PCR profile consisted of 10 minutes of initial activation at 95° C., followed by 40 cycles of 15 seconds denaturation at 95° C., and 1 min annealing and 1 min extension at 60° C. The genuine identity of each PCR product was confirmed by the size determination using 2% agarose gels followed by ethidium bromide staining together with PCR marker according to EC3 Imaging System (BioImaging System, Upland, Calif.).
The Quantikine Human ELISA Kits of TGFβs were used for determination of TGFβs following the manufacturer's instructions (R and D Systems, Minneapolis, Minn.).
HCF, induced human corneal endothelial cells (HCEC), and HCEC monolayer cultures were air-dried and fixed in 4% formaldehyde, pH 7.0, for 15 min at room temperature, rehydrated in PBS, incubated with 0.2% Triton X-100 for 15 min, and rinsed three times with PBS for 5 min each. After incubation with 2% BSA to block non-specific staining for 30 min, they were incubated with the desired first antibody (all at 1:50 dilution) for 16 h at 4° C. After three washes with PBS, they were incubated with corresponding Alexa-Fluor-conjugated secondary IgG (all 1:100 dilutions) for 60 min. The samples were then counterstained with Hoechst 33342 and analyzed with Zeiss LSM 700 confocal microscope (Thornhood, N.Y.). Corresponding mouse and rabbit sera were used as negative controls for primary monoclonal and polyclonal antibodies, respectively. […]

## hyaluronic acid [HA]
[1]
  staining of α-SMA: retained their characteristic staining of α-SMA
[2]; absence of TGFβ1
  expression of NC markers (p75NTR, HNK1, Sox9, KLF4, Snail1, MSX1): only upregulated expression of HNK1
  keratocan mRNA and protein: upregulated mRNA but not protein of keratocan
[2]; after exogenous TGFβ1 (10 ng/ml)
  TGFβ1 mRNA and protein level: upregulated
[2]; exogenous TGFβ1
  nuclear translocation of pSMAD2/3 and cytoplasmic expression of α-SMA: caused nuclear translocation of pSMAD2/3 and positive cytoplasmic expression of α-SMA
[2]; immobilized substrate, DMEM+10% FBS, 24 h
  cell shape / aggregation of P3 HCF: spindle in shape
[2]; presence of TGF-β1
  keratocan upregulation: upregulation disappeared
[2]; with TGFβ1
  NC marker mRNA, p75NTR protein and p75NTR nuclear translocation: further upregulated without p75NTR nuclear translocation
